Data: patent US20130184290A1, “SELF-EMULSIFYING FORMULATIONS AND METHODS OF USE THEREOF” (CAPSUGEL, Inc., priority 2011, published 2013)
Where two headings read alike, the source gives them in different places.

Tests used:
[1] = Fed-fasted pharmacokinetics of compound 1 HCl salt; format: in vivo; details: for half-life: human, in vivo, po, read-out: t1/2 for absorption
Excerpt: The fed-fasted pharmacokinetic data were collected using a “normal fat” meal consisting of toast with 1 pat of butter, a banana, 2% milk, apple juice, and Honey Nut Cheerios®, where the meal has about 501 calories with 99 calories from fat, 346 calories from carbohydrates, and 56 calories from protein; and using a “high fat” meal consisting of 2 eggs fried in butter, 2 strips of bacon, 2 slices of toast with butter, 4 ounces of hash brown potatoes and 8 ounces of whole milk, where the meal has about 1,000 calories with 500-600 calories from fat, 250 calories from carbohydrates, and 150 calories, from protein.

[2] = Tolerability of compound 1 doses; format: in vivo; details: doses of up to 1,600 mg
Excerpt: Yet, compound 1 is also known to have decreased oral bioavailability in the fasted state, as compared to the fed state. Accordingly, the invention provides formulations to increase the oral bioavailability or to reduce patient-to-patient variability in pharmacokinetic behavior of compound 1, compound 2, or a salt thereof. These formulations include use of a self-emulsifying carrier system to provide stable emulsions capable of dissolving therapeutically effective amounts of compound 1, compound 2, or a salt thereof.

[3] = Previously determined solubility of compound 1; format: physicochemical
Excerpt: Compound 1 has the following previously determined characteristics: […]

[4] = Previously determined hygroscopicity of compound 1; format: physicochemical; details: free base; at 70% relative humidity (RH)
Excerpt: Compound 1 has the following previously determined characteristics:
(vi) hygroscopicity (for free base): 0.09% at 70% relative humidity (RH);

[5] = system: Caco-2 cells; assay: Apparent intestinal permeability, Caco-2 cell model; format: in vitro ADME; details: for Papp R3: replicate 3
Excerpt: (§1) Absorption of particular drugs may be limited by biological factors, such as reduced cellular permeability in the intestine. Many cellular mechanisms can influence permeability, such as reduced passive paracellular and transcellular transport or increased active export by the efflux transporter protein P-glycoprotein. Thus, the use of self-emulsifying carriers may not be beneficial for drugs having limited cellular permeability, where methods to increase the solubilization of a drug may not increase its permeability in the gastrointestinal tract. Experiments were conducted to assess the apparent intestinal permeability of compound 1 using a Caco-2 cell model.
(§2) Briefly, Caco-2 cells were used as an in vitro model for predicting absorption through the intestinal epithelium. Confluent monolayers of Caco-2 cells were grown on collagen-coated, microporous, polycarbonate membranes (12-well Costar Transwell® plates) that are placed between two chambers. The apical side of the monolayer was exposed to the buffer solution in a first chamber, but the basolateral side of the monolayer adhered to microporous membranes fluidically connected to a second chamber. The dosing solution was added to the first chamber for measurements in the apical-to-basolateral direction (A-to-B) and to the second chamber for measurements in the basolateral-to-apical direction (B-to-A). […] The permeability assay buffer was Hanks Balanced Salt Solution containing 10 mM HEPES and 15 mM glucose at a pH of 7.4. The buffer in the receiver chamber also contained 1% bovine serum albumin. The dosing solution concentration was 1 μM of compound 1 in the assay buffer. All donor chambers were first pre-incubated for five minutes with dosing solution to attempt to saturate any non-specific binding sites on the device with test compound. After five minutes, the solution was removed and replaced with fresh dosing solution, and time was recorded as 0. Cell monolayers were dosed on the apical side/first chamber (for A-to-B measurements) or basolateral side/second chamber (for B-to-A measurements) and incubated at 37° C. with 5% CO2 in a humidified incubator. At 30 and 60 minutes, aliquots were taken from the receiver chambers and replaced with fresh assay buffer. Samples were taken from the donor chamber at 0 and 60 minutes. Each experiment was performed in triplicate.
(§3) The apparent permeability (Papp), percent recovery, and efflux ratio were calculated as follows: […]
(§4) is the slope of the cumulative concentration in the receiver chamber as a function of time; V, [cm^3] is the volume of the receiver chamber; Vd [cm^3] is the volume of the donor chamber; A [cm^2] is the area of the cell monolayer, which is estimated to be about 1.13 cm^2 for the 12-well Costar Transwell® plates; C0[μM] is the measured concentration in the donor chamber at t=0 hours; CN [μM] is the nominal concentration of the dosing solution; Cr,final [μM] is the cumulative concentration in the receiver chamber at the end of the incubation period; and Cd,final [μM] is the cumulative concentration in the donor chamber at the end of the incubation period.
(§5) Thus, absorption of compound 1 in humans is not expected to be permeability limited.

[6] = as above; format: in vitro ADME; details: human, Caco-2, pH 7.4
Excerpt: as §1, §2, §3, §4, §5

[7] = Physical stability, formulations having one carrier; format: physicochemical

Tmax ([1]; fed state with high fat meal) [h]	Tmax ([1]; fed state with normal fat meal) [h]	half-life ([1]; fasted state) [min]	half-life ([1]; fed state with high fat meal) [min]	half-life ([1]; fed state with normal fat meal) [min]	solubility in propylene glycol, ethanol, and tetrahydrofuran [3]	solubility in water [3]	hygroscopicity [4] [%]	Papp R3 ([5]; A-to-B)	Papp R3 ([5]; B-to-A)	permeability classification ([5]; based on Papp(A-to-B))	efflux of compound 1 ([5]; based on efflux ratio)	Papp A→B at 60 min, 1 μM ([6]; A-to-B, average) [×10⁻⁶ cm/s]	efflux ratio at 60 min, 1 μM ([6]; read-out: Efflux Ratio (Papp (B-to-A)/Papp (A-to-B)))	Physical Stability, one month [7] [month]	Physical Stability, one month (cells printed in weeks) [7] [week]	Physical Stability, one week [7] [week]	Molecule	adverse effects [2]
4 to 5	2 to 5	3 to 10.2	48 to 168	30 to 96	soluble	slightly soluble	0.09	6.78 10^−6 cm/s	4.45 10^−6 cm/s	high permeability coefficient	not considered significant	> 1	< 3	–	–	–	O=C(CC(c1ccccc1)c1ccccc1)N1CCN(C(c2ccccc2)c2ccccc2)CC1 [Compound 1, 1-(4-benzhydrylpiperazin-1-yl)-3,3-diphenylpropan-1-one]	no adverse effects
–	–	–	–	–	–	–	–	–	–	–	–	–	–	>1	>1	>1	Caprylic/capric glycerides	–
–	–	–	–	–	–	–	–	–	–	–	–	–	–	>1	–	>1	PEG 8 caprylic/capric glycerides	–
